One data set addresses T1, CYP3A5 (Homo sapiens, UniProt P20815).
T1 construct: purchased
As to the kind of experiment: Incubation assay with recombinant CYP (Vivid kit). The conditions noted are these: recombinant enzyme, Vivid substrate. The data set is classed as biochemical. The protocol:
(§1) Possible interactions of examined PARPi with human CYP3A4, CYP2C8, CYP2D6, CYP1A2, CYP2B6, CYP2C9, CYP2C19, and CYP3A5 were evaluated using commercial Vivid CYP450 Screening Kits. […] CYP isoenzymes were mixed with the NADPH-regeneration system, and resulting solutions were added to the wells. After 10 min preincubation, the solution of NADP ^+ and a particular Vivid substrate were added to start the CYP-catalyzed reaction. Fluorescence corresponding to the levels of produced metabolites was detected using the microplate reader Infinite […] (Tecan, Männedorf, Switzerland) in a kinetic mode (1-minute intervals). The data from the 15 min interval were selected to analyze the results.

The next data set deals with T2, CYP2C8 (Homo sapiens, UniProt P10632).
T2 construct: purchased
In words: Incubation assay with recombinant CYP (Vivid kit). The data set is classed as biochemical. To be noted: recombinant enzyme, Vivid substrate. The protocol:
as §1

Another data set deals with T3, CYP2B6 (Homo sapiens, UniProt P20813).
T3 construct: purchased
As to the kind of experiment: Incubation assay with recombinant CYP (Vivid kit). The data set is classed as biochemical. The conditions noted are these: recombinant enzyme, Vivid substrate. The protocol: as §1

The subject of another data set is ABCG2. To be noted: 12-days exposure; MCF-10A; cited from earlier work.
The next data set deals with MDCKII-parent. In words: MTT proliferation / drug combination assay. To be noted: Canis lupus familiaris; MDCKII-par; comparative MTT, 48 h; read-out: antiproliferative IC50. The data set is classed as cell-based, Canine. As for the experimental part:
(§2) The viability MTT assay was employed in several experimental sets, including induction studies, comparative viability assays, and drug combinations. First, 1.3 × 10^4 (MDCKII sublines), 1.2 × 10^4 (A431 sublines), 1.5 × 10^4 (MCF-7), and 1.0 × 10^4 (primary NSCLC explants) cells were seeded in 96-well plates. After seeding, cells were left to refresh in incubator for 24 h. Secondly, the medium was removed, and the serial dilutions of the drugs or drug combinations were added to the cells. Next to these variants, a medium with 40% DMSO and vehicle-containing media were tested as nonviable and unaffected viability controls, respectively. After an additional 48 h of incubation, the cells were washed with 1 × PBS and then treated with 1 mg/mL MTT solution in Opti-MEM. Subsequently, cells were incubated for 60 min under standard conditions. After MTT treatment, generated formazan crystals were solubilized with DMSO for 10 min. Wavelengths of 570 nm (formazan) and 690 nm (background) were used for absorbance measurements using a microplate reader Infinite 200 Pro NanoQuant (Tecan, Männedorf, Switzerland).
(§3) In vitro cell lines (MDCKII and A431) and primary NSCLC explants were seeded (see densities above) in 96-well plates and incubated for 24 h. […] Combined cells were incubated with the tested compounds for 48 h, and subsequently, MTT assay was performed to assess cell viability as described above. Besides IC50-shift analysis, CompuSyn 3.0.1 software (ComboSyn Inc., Paramus, NJ, USA) was used for the additional analysis of obtained data. This software works with the algorithms of the combination index (CI) method of Chou–Talalay, which is frequently used for the accurate quantification of drug combinations’ outcomes. According to the CI method principle, the combination effects were separated into three categories, including synergistic (CI < 0.9), additive (CI between 0.9–1.1), or antagonistic (CI > 1.1) ones.

The test system of a further data set is MDCKII-ABCC1. In words: MTT proliferation / drug combination assay. The conditions noted are these: Canis lupus familiaris, comparative MTT, 48 h, read-out: antiproliferative IC50. The data set is classed as cell-based, Canine. As for the experimental part: as §2, §3
A short description of data set [1]: MTT proliferation / drug combination assay. The data set is classed as cell-based, Canine. To be noted: dog, MDCKII-ABCG2 cells; MDCKII-ABCG2; comparative MTT, 48 h; read-out: antiproliferative IC50. The protocol:
as §2, §3

The next data set concerns the target ABCC1 (Homo sapiens, UniProt P33527). The conditions noted are these: 12-days exposure; MCF-10A; cited from earlier work.

As usually defined, the IC50 is the concentration at which inhibition is half-maximal.

Sequence of ABCC1 (P33527 whole entry): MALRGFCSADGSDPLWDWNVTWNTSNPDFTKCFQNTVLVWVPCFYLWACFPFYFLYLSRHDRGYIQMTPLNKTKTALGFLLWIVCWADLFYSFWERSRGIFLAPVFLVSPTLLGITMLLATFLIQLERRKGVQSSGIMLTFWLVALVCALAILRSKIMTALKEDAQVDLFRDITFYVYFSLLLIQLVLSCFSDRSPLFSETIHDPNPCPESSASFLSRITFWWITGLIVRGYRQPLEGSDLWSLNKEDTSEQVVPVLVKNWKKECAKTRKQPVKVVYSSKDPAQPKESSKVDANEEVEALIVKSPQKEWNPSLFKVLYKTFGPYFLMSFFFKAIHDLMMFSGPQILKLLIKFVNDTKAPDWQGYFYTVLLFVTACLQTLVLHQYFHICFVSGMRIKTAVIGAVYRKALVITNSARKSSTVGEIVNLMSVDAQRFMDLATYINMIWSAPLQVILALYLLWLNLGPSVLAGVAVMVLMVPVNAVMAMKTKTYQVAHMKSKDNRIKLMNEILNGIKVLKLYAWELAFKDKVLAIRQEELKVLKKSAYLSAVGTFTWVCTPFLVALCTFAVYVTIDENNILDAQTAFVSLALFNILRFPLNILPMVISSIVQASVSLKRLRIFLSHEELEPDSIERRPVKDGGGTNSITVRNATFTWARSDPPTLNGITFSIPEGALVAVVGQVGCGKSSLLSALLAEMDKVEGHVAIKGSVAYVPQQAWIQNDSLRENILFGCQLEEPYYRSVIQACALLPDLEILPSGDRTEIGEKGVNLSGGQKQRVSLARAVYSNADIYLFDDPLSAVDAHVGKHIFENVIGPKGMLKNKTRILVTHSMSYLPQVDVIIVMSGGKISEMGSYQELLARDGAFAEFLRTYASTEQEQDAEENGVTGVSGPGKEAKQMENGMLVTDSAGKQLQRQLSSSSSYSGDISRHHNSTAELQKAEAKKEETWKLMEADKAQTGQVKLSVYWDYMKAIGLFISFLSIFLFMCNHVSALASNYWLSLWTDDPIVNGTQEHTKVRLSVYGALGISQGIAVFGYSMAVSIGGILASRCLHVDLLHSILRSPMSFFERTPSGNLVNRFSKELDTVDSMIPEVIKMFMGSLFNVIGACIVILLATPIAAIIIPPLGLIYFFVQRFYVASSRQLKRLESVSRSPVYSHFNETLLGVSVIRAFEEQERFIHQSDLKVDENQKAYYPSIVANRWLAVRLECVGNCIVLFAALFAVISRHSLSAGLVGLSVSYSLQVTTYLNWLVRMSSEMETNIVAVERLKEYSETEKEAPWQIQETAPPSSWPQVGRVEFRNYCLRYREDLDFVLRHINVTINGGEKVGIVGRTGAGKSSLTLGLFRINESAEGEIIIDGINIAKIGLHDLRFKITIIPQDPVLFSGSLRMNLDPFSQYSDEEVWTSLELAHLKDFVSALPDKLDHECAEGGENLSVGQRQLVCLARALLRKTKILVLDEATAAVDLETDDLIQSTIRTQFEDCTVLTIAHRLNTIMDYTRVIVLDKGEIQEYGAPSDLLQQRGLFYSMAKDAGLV
T1 sequence (P20815 whole entry): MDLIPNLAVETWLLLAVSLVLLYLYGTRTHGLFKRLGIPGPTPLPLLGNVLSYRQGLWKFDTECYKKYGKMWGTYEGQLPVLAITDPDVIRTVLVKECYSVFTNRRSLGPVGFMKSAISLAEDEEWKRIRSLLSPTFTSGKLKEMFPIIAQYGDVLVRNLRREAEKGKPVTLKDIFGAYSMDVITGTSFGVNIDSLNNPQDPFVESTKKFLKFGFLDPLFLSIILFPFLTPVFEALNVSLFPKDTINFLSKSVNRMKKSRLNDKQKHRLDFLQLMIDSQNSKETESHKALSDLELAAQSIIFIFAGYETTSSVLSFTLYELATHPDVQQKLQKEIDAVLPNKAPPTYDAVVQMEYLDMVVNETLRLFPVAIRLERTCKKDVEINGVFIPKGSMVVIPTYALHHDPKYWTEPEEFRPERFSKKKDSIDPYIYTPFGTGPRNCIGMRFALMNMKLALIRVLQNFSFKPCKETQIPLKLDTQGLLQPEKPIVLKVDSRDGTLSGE
T2 sequence (P10632 whole entry): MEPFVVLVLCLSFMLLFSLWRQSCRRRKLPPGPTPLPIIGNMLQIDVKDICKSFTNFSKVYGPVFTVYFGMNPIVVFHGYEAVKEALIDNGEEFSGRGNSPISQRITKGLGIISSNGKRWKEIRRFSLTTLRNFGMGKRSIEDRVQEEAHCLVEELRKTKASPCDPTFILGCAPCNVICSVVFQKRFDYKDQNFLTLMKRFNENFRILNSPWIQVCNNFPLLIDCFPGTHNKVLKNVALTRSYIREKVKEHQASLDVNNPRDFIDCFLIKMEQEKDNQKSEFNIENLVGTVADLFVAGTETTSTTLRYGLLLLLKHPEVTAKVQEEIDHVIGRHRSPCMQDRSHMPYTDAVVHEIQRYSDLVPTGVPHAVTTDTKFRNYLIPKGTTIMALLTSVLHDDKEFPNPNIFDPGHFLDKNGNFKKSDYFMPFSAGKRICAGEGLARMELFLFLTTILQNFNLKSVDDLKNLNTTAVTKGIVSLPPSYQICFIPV
T3 sequence (P20813 whole entry): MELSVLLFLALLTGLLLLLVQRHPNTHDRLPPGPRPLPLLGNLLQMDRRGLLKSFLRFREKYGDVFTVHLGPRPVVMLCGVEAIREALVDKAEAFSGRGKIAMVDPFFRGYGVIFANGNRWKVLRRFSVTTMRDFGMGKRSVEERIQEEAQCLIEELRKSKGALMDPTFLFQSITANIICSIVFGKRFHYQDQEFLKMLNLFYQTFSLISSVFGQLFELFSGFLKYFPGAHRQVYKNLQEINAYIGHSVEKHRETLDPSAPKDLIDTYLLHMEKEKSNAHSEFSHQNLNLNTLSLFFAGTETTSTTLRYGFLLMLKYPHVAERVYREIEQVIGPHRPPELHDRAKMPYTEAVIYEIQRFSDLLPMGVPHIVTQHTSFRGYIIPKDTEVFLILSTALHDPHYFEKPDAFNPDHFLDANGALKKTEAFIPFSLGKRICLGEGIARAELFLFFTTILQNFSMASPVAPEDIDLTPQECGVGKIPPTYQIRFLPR

As to `Cn1ncnc1[C@H]1c2n[nH]c(=O)c3cc(F)cc(c23)N[C@@H]1c1ccc(F)cc1` [talazoparib, Talazoparib], the IC50 at CYP3A5 was above 50 µM; on CYP2C8 it was above 50 µM; at CYP2B6, above 50 µM; with MDCKII-parent, 69.4 µM; in the data set with MDCKII-ABCC1, 66 µM. The “effect on ABCG2 mRNA” value in the data set with ABCG2 is reported as “upregulate”. In addition, the “effect on ABCG2 protein level” value with ABCG2 is given as “decreased”. For the same compound, the IC50 at 48 h in data set [1] worked out at 64.5 µM. The “effect on ABCC1 mRNA” value at ABCC1 was “upregulate”. Also, on ABCC1, the “effect on ABCC1 protein level” value is “unchanged”.

The record behind these values is article PMC9697930 (International Journal of Molecular Sciences, 2022).
